Data on five compounds can be found in ChEMBL document CHEMBL1914347, “Palmerolide macrolides from the Antarctic tunicate Synoicum adareanum” (Bioorg Med Chem, 2011).

Molecules are shown by their SMILES.

One experiment concerns UACC-62. Put plainly: Cytotoxicity against human UACC62 cells after 48 hrs by SRB assay. It counts as functional, cell-based. To be noted: UACC-62, 48 h. (The SRB assay estimates cell density from bound dye.)
The nature of experiment [1]: Inhibition of bovine brain Vo domain of V-ATPase activity assessed as ATP-mediated proton translocation by spectrophotometric analysis. On the set-up: species or system Bos taurus.
A short description of experiment [2]: Ratio of IC50 for bovine brain Vo domain of V-ATPase activity to IC50 for human UACC62 cells. On the set-up: species or system UACC-62.
A short description of experiment [3]: Cytotoxicity against human NCI60 cells. The experiment is classed as functional. To be noted: read-out: LC50 (the source's name).

Regarding `C=C(C)C/C(C)=C\C(=O)N/C=C/C(C)=C/[C@@H](C)[C@H]1C/C(C)=C/C=C/CC[C@H](OC(N)=O)[C@@H](O)/C=C/[C@@H](O)CCC/C=C/C(=O)O1` [PALMEROLIDE D], the results for the IC50 (in the experiment on UACC-62; in experiment [1]) were 0.002 µM and 0.025 µM, respectively. Moreover, in experiment [2], the “Ratio IC50” value worked out at 12.5.

Consider `C/C(C=O)=C\[C@@H](C)[C@H]1C/C(C)=C/C=C/CC[C@H](OC(N)=O)[C@@H](O)/C=C/[C@@H](O)CCC/C=C/C(=O)O1` [PALMEROLIDE E], for which the half-maximal inhibitory concentration (IC50) (in general, the concentration at which inhibition is half-maximal) was 5000 µM with UACC-62 and > 10000 µM in experiment [1]. The “Ratio IC50” value in experiment [2] is recorded as >2.

With `CC(C)=CC(=O)N/C=C/C(C)=C/[C@@H](C)[C@H]1C/C(C)=C/C=C/CC[C@H](OC(N)=O)[C@@H](O)/C=C/[C@@H](O)CCC/C=C/C(=O)O1` [PALMEROLIDE A], in experiment [3], the CC50 stood at 0.018 µM. Also, the values for the IC50 (with UACC-62; in experiment [1]) were 0.024 µM and 0.002 µM, respectively. The “Ratio IC50” value in experiment [2] was 0.083.

As to `CC(C)=CC(=O)N/C=C/C(C)=C\[C@@H](C)[C@H]1C/C(C)=C/C=C/CC[C@H](OC(N)=O)[C@@H](O)/C=C/[C@@H](O)CCC/C=C/C(=O)O1` [PALMEROLIDE G], the 50% inhibitory concentration (IC50) came to 1.21 µM in the experiment with UACC-62 and 0.007 µM in experiment [1]. Moreover, the “Ratio IC50” value in experiment [2] is reported as 0.006.

For `C=C(C)CC(=O)N/C=C/C(C)=C/[C@@H](C)[C@H]1C/C(C)=C/C=C/CC[C@H](OC(N)=O)[C@@H](O)/C=C/[C@@H](O)CCC/C=C/C(=O)O1` [PALMEROLIDE F], the results for the IC50 (in the experiment with UACC-62; in experiment [1]) were 0.758 µM and 0.063 µM, respectively. Besides, the “Ratio IC50” value in experiment [2] is 0.083.
